According to US20240287089A1, “Preparation and Uses of 7-Azaindenoisoquinolines” (Purdue Research Foundation, priority 0001, published 2024):

Key:
[1] = Brain penetration and plasma/brain pharmacokinetics in combination with Temodar or Lynparza
Procedure: A similar analysis was performed with LMP744 and LMP400 in combination with Temodar and Lynparza.

DU-145 (Prostate) = test: NCI-60 cytotoxicity assay; format: cell-based, human; conditions: Homo sapiens; DU-145 prostate; 48 h, sulforhodamine B; read-out: Comparative Cytotoxicity GI50, Prostate DU-145
Procedure: (§1) The antiproliferative activities of the indenoisquinoline compounds are determined in the NCI-60 cancer cell lines of the National Cancer Institute Developmental Therapeutics Program (NCI-DTP). […] Cancer cells are incubated with the test compounds at five concentrations ranging from 100 μM to 10 nM for 48 h. After the treated cancer cells are stained with sulforhodamine B dye, the percentage growth is plotted as a function of the common logarithm of the tested compound concentration. […] The approximate average of GI50 values across the entire panel of NCI-60 cancer cell lines for each compound is recorded as the MGM value.
(§2) NCI-60 Cytotoxicity Assay. Compounds were submitted to the National Cancer Institute Developmental Therapeutic Program to determine their growth-inhibitory potentials in NCI-60 cell lines. All compounds satisfied the pre-screening proceeded into the 5-dose cell viability assay, in which cells were treated for 48 h at 5 dosages ranging from 100 μM to 10 nM.

HCT-116 (Colon) = test: NCI-60 cytotoxicity assay; format: cell-based, human; conditions: Homo sapiens; HCT-116 colon; 48 h, sulforhodamine B; read-out: Comparative Cytotoxicity GI50, Colon HCT-116
Procedure: as §1, §2

HOP-62 (Lung) = test: NCI-60 cytotoxicity assay; format: cell-based, human; conditions: Homo sapiens; HOP-62 lung; 48 h, sulforhodamine B; read-out: Comparative Cytotoxicity GI50, Lung HOP-62
Procedure: as §1, §2

MCF7 (Breast) = test: NCI-60 cytotoxicity assay; format: cell-based, human; conditions: Homo sapiens; MCF7 breast; 48 h, sulforhodamine B; read-out: Comparative Cytotoxicity GI50, Breast MCE7
Procedure: as §1, §2

OVCAR-3 (Ovarian) = test: NCI-60 cytotoxicity assay; format: cell-based, human; conditions: Homo sapiens; OVCAR-3 ovarian; 48 h, sulforhodamine B; read-out: Comparative Cytotoxicity GI50, Ovarian OVCAR-3
Procedure: as §1, §2

SN12C (Renal) = test: NCI-60 cytotoxicity assay; format: cell-based, human; conditions: Homo sapiens; SN12C renal; 48 h, sulforhodamine B; read-out: Comparative Cytotoxicity GI50, Renal SN12C
Procedure: as §1, §2

UACC-62 (Melanoma) = test: NCI-60 cytotoxicity assay; format: cell-based, human; conditions: Homo sapiens; UACC-62 melanoma; 48 h, sulforhodamine B; read-out: Comparative Cytotoxicity GI50, Melanoma UACC-62
Procedure: as §1, §2

SF-539 (CNS) = test: NCI-60 cytotoxicity assay; format: cell-based; conditions: Homo sapiens; SF-539 CNS; 48 h, sulforhodamine B; read-out: Comparative Cytotoxicity GI50, CNS SF-539
Procedure: as §1, §2

NCI-60 cancer cell lines = test: NCI-60 cytotoxicity assay, MGM; format: cell-based; conditions: Homo sapiens; entire panel of NCI-60 cancer cell lines; read-out: MGM (approximate average of GI50 values across the NCI-60 panel)
Procedure: as §1, §2

[2] = Lynparza 100 mg/kg PO + LMP400 10 mg/kg IV, 0.5 h
[3] = Lynparza 100 mg/kg PO + LMP400 10 mg/kg IV, 1 h
[4] = Lynparza 100 mg/kg PO + LMP400 10 mg/kg IV, 2 h
[5] = Lynparza 100 mg/kg PO + LMP400 10 mg/kg IV, 4 h
[6] = Lynparza 100 mg/kg PO + LMP400 10 mg/kg IV, 8 h
[7] = Lynparza 100 mg/kg PO + LMP400 10 mg/kg IV, 24 h
[8] = Lynparza 100 mg/kg PO + LMP744 10 mg/kg IV, 0.25 h
[9] = Lynparza 100 mg/kg PO + LMP744 10 mg/kg IV, 0.5 h
[10] = Lynparza 100 mg/kg PO + LMP744 10 mg/kg IV, 1 h
[11] = Lynparza 100 mg/kg PO + LMP744 10 mg/kg IV, 2 h
[12] = Lynparza 100 mg/kg PO + LMP744 10 mg/kg IV, 4 h
[13] = Lynparza 100 mg/kg PO + LMP744 10 mg/kg IV, 8 h
[14] = Lynparza 100 mg/kg PO + LMP744 10 mg/kg IV, 24 h

O=C(c1cc(Cc2n[nH]c(=O)c3ccccc23)ccc1F)N1CCN(C(=O)C2CC2)CC1 [Lynparza]
Brain Conc ([1]; Lynparza 100 mg/kg PO + LMP400 10 mg/kg IV, 0.25 h): 13.1 ± 6.99 nM
Brain Conc [1, 2]: 33.36 ± 18.87 nM
Plasma Conc [1, 2]: 1384 ± 929 nM
Brain Conc [1, 3]: 50.03 ± 9.79 nM
Plasma Conc [1, 3]: 2644 ± 762 nM
Brain Conc [1, 4]: 30.44 ± 15.89 nM
Plasma Conc [1, 4]: 1637 ± 1051 nM
Brain Conc [1, 5]: 18.39 ± 8.59 nM
Plasma Conc [1, 5]: 755 ± 460 nM
Brain Conc [1, 6]: BLOQ
Plasma Conc [1, 6]: 166 ± 208 nM
Brain Conc [1, 7]: BLOQ
Plasma Conc [1, 7]: BLOQ
Brain Conc [1, 8]: BLOQ
Plasma Conc [1, 8]: 345 ± 101 nM
Brain Conc [1, 9]: 12.1 ± 0.53 nM
Brain/Plasma Conc Ratio [1, 9]: 0.02
Plasma Conc [1, 9]: 555 ± 93.4 nM
Brain Conc [1, 10]: 14.10 ± 7.30 nM
Brain/Plasma Conc Ratio [1, 10]: 0.01
Plasma Conc [1, 10]: 961 ± 189 nM
Brain Conc [1, 11]: 44.9 ± 20.08 nM
Plasma Conc [1, 11]: 1610 ± 968 nM
Brain Conc [1, 12]: 25.4 ± 6.52 nM
Plasma Conc [1, 12]: 1110 ± 250 nM
Brain Conc [1, 13]: BLOQ
Plasma Conc [1, 13]: 314 ± 185 nM
Brain Conc [1, 14]: BLOQ
Plasma Conc [1, 14]: BLOQ
concentration at 0.25 h ([1]; mouse, plasma, oral, Plasma Conc, Lynparza 100 mg/kg PO + LMP400 10 mg/kg IV, 0.25 h): 506 ± 423 nM

COc1cc2c3c(n(CCCN4CCC[C@H]4C(N)=O)c(=O)c2cc1OC)-c1cc2c(cc1C3=O)OCO2 [A5]
GI50 (DU-145 (Prostate)): 38 nM
GI50 (HCT-116 (Colon)): 35 nM
GI50 (HOP-62 (Lung)): 31 nM
GI50 (MCF7 (Breast)): 10 nM
GI50 (OVCAR-3 (Ovarian)): 160 nM
GI50 (SN12C (Renal)): 42 nM
GI50 (UACC-62 (Melanoma)): 21 nM
GI50 (SF-539 (CNS)): 30 nM
GI50 (NCI-60 cancer cell lines): 125 nM

COc1cnc2c(c1)C(=O)c1c-2n(CCCNC(C)C)c(=O)c2cc(OC)c(OC)cc12 [A11]
GI50 (DU-145 (Prostate)): 1270 nM
GI50 (HCT-116 (Colon)): 1020 nM
GI50 (HOP-62 (Lung)): 700 nM
GI50 (MCF7 (Breast)): 220 nM
GI50 (OVCAR-3 (Ovarian)): 8990 nM
GI50 (SN12C (Renal)): 4190 nM
GI50 (UACC-62 (Melanoma)): 2430 nM
GI50 (SF-539 (CNS)): 1360 nM
GI50 (NCI-60 cancer cell lines): 2340 nM
